Structures are written as SMILES.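 48-hour exposure; five concentrations; linearly interpolated endpoints. Here, GI50 denotes the concentration required for 50% inhibition of growth.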 Activity calls are given as the source filed them. Cut-off read from the data, not from the text of the source: active = GI50 up to about 1.1 µM and inactive = higher.

Common to all, as to experiment: NCI anticancer screen, dose series, 48 h
Experiment [1] concerns COLO 205.
The test system of experiment [2] is SW-620.
Experiment [3] concerns EKVX.
Experiment [4] has as its system SK-MEL-2.
In experiment [5] the test system is MDA-MB-231.
The subject of experiment [6] is MDA-N.
Experiment [7] relates to NCI-H460.
In experiment [8] the test system is MDA-MB-435.
Experiment [9] deals with SF-295.
Experiment [10] deals with UACC-62.
For experiment [11], the system named is OVCAR-4.
Experiment [12] relates to RXF 393.
Experiment [13] concerns M14.
Experiment [14] relates to NCI-H522.
In experiment [15] the test system is SK-MEL-5.
Experiment [16] concerns UO-31.
For experiment [17], the system named is SK-OV-3.
For experiment [18], the system named is HT-29.
For experiment [19], the system named is TK-10.
The test system of experiment [20] is Hs-578T.

`CN(C)CCNc1ccc(C(=O)NCCCN(C)CCCNC(=O)c2ccc(NCCN(C)C)c3c(=O)c4ccccc4[nH]c23)c2[nH]c3ccccc3c(=O)c12`: the GI50 is 0.0163 µM (active) in experiment [1]; < 0.0113 µM (active) in [2]; 0.478 µM (active) in [3]; 0.0489 µM (active) in experiment [4]; 0.024 µM (active) in experiment [5]; 0.0346 µM (active) in experiment [6]. The GI50 in experiment [7] is < 0.0163 µM (active); in [8] it was 0.032 µM (active); in experiment [9] it was 0.0328 µM (active); in [10], 0.0349 µM (active); in [11] it was 0.0322 µM (active); in experiment [12] it was 0.0809 µM (active). For the same compound, the GI50 in experiment [13] is 0.218 µM (active); in experiment [14], < 0.01 µM (active); in experiment [15] it was 0.146 µM (active); in experiment [16] it was 1.27 µM (inactive); in [17], 0.109 µM (active); in experiment [18], < 0.01 µM (active). Moreover, the GI50 in [19] was 0.828 µM (active); in experiment [20] it was < 0.0347 µM (active).

Take `CCOC(=O)C(Cc1ccc(OC(=O)OC(C)(C)C)cc1)NC(=O)OC(C)(C)C` (stereo not given): the GI50 in experiment [1] was 39.7 µM (inactive); in experiment [2] it was 34.7 µM (inactive); in experiment [3] it was > 100 µM (inactive); in experiment [4], > 100 µM (inactive); in [5] it was 41.6 µM (inactive); in experiment [6], > 100 µM (inactive). Further, the GI50 in experiment [7] was > 100 µM (inactive); in experiment [8] it was 38.2 µM (inactive); in experiment [9] it was > 100 µM (inactive); in experiment [10], > 100 µM (inactive); in experiment [11], > 100 µM (inactive); in experiment [12], 53.2 µM (inactive). The GI50 in experiment [13] is 26.5 µM (inactive); in [14] it was > 100 µM (inactive); in experiment [15], > 100 µM (inactive); in experiment [16] it was 54.3 µM (inactive); in [17], > 100 µM (inactive); in [18], > 100 µM (inactive). Moreover, the results for the GI50 in experiment [19] and in experiment [20] were 71.1 µM (inactive) and 47.5 µM (inactive), respectively.

As to `CC1=CC(=O)/C(=C/NC(=S)C(N)=S)C(=O)O1`, the GI50 in [1], in experiment [2], in experiment [3], in experiment [4], in experiment [5] and in [6] was > 100 µM (inactive) throughout. For the same compound, the GI50 in experiment [7], in experiment [8], in experiment [9], in experiment [10], in experiment [11] and in experiment [12] was > 100 µM (inactive) in each case. In addition, the GI50 in experiment [13], in experiment [14], in experiment [15], in [16], in [17] and in experiment [18] was > 100 µM (inactive) each time. In addition, the GI50 in [19] and in experiment [20] was > 100 µM (inactive) in each case.

For `CC(=O)OC1=CC2=CC[C@H]3[C@@H]4CCC(=O)[C@@]4(C)CC(=O)[C@]3(S)[C@@]2(C)CC1`, the GI50 in experiment [1] was 32.4 µM (inactive); in experiment [2], 31.6 µM (inactive); in [3] it was > 100 µM (inactive); in experiment [4] it was 47.1 µM (inactive); in experiment [5], 26 µM (inactive); in [6], 31.7 µM (inactive). Besides, the GI50 is 25.2 µM (inactive) in experiment [7]; 30.7 µM (inactive) in [8]; 48.4 µM (inactive) in [9]; 26.1 µM (inactive) in experiment [10]; 57.8 µM (inactive) in [11]; 18.7 µM (inactive) in experiment [12]. For the same compound, the GI50 was 36.9 µM (inactive) in [13]; 20 µM (inactive) in experiment [14]; 31.6 µM (inactive) in experiment [15]; 51.1 µM (inactive) in experiment [16]; 65.6 µM (inactive) in experiment [17]; > 100 µM (inactive) in experiment [18]. For the same compound, the GI50 was 27.9 µM (inactive) in [19] and 25.1 µM (inactive) in [20].

With `COCN(CCC1=CCCCC1)C(=O)OC`, the GI50 in experiment [1], in experiment [2], in experiment [3], in experiment [4], in experiment [5] and in experiment [6] was > 100 µM (inactive) in each case. In addition, the GI50 in experiment [7] is 29.9 µM (inactive); in experiment [8] it was > 100 µM (inactive); in experiment [9], 28.2 µM (inactive); in experiment [10], > 100 µM (inactive); in [11], > 100 µM (inactive); in experiment [12], > 100 µM (inactive). For the same compound, the GI50 in experiment [13] was > 100 µM (inactive); in experiment [14] it was 38.1 µM (inactive); in experiment [15], 81.7 µM (inactive); in experiment [16], 46.3 µM (inactive); in experiment [17], > 100 µM (inactive); in [18], > 100 µM (inactive). Further, the GI50 in experiment [19] and in experiment [20] was > 100 µM (inactive) each time.

With `COc1cc(C2c3cc4c(cc3OC3(OC)COC(=O)C23)OCO4)cc(OC)c1OC` (stereo not given), the GI50 was 0.251 µM (active) in experiment [1]; 0.286 µM (active) in experiment [2]; 0.343 µM (active) in [3]; 0.771 µM (active) in experiment [4]; 0.29 µM (active) in experiment [5]; 0.075 µM (active) in experiment [6]. In addition, the GI50 in [7] is 0.38 µM (active); in experiment [8] it was 0.0863 µM (active); in experiment [9], 0.173 µM (active); in experiment [10], 0.311 µM (active); in experiment [11], 4.85 µM (inactive); in [12] it was 0.142 µM (active). For the same compound, the GI50 was 0.272 µM (active) in [13]; 0.18 µM (active) in experiment [14]; 0.292 µM (active) in experiment [15]; 0.675 µM (active) in experiment [16]; 0.348 µM (active) in [17]; 0.274 µM (active) in [18]. For the same compound, the results for the GI50 in [19] and in [20] were 1.19 µM (inactive) and 0.355 µM (active), respectively.

As to `NC(=O)c1cccc(/N=c2\oc3ccc(Br)cc3cc2-c2nc3ccccc3[nH]2)c1`, the GI50 in experiment [1] was 14.6 µM (inactive); in experiment [2], 15.3 µM (inactive); in [3], 13.9 µM (inactive); in [4] it was 19.9 µM (inactive); in experiment [5], 7.55 µM (inactive); in experiment [6], 17.7 µM (inactive). The GI50 in experiment [7] was 15.5 µM (inactive); in experiment [8], 15.1 µM (inactive); in experiment [9], 15.8 µM (inactive); in [10], 14.4 µM (inactive); in [11] it was 18.8 µM (inactive); in experiment [12], 22 µM (inactive). Besides, the GI50 in experiment [13] is 15.7 µM (inactive); in [14], 22.1 µM (inactive); in [15], 1.81 µM (inactive); in experiment [16], 7.76 µM (inactive); in experiment [17], 16.4 µM (inactive); in experiment [18] it was 15.8 µM (inactive). In addition, the values for the GI50 in experiment [19] and in [20] were 17 µM (inactive) and 27.4 µM (inactive), respectively.

For the compound `C/C(O)=C/C(=O)c1[nH]c(C(=O)O)cc1C1CCN(Cc2ccccc2)C1=O` (stereo not given), the GI50 is 18 µM (inactive) in [1]; 29.5 µM (inactive) in experiment [2]; 21.3 µM (inactive) in experiment [3]; 22.8 µM (inactive) in experiment [4]; 33.2 µM (inactive) in experiment [5]; 17.2 µM (inactive) in experiment [6]. Moreover, the GI50 was 15.8 µM (inactive) in experiment [7]; 27.3 µM (inactive) in experiment [8]; 17.9 µM (inactive) in experiment [9]; 18.5 µM (inactive) in experiment [10]; 34 µM (inactive) in experiment [11]; 12 µM (inactive) in [12]. Further, the GI50 in [13] was 15.3 µM (inactive); in experiment [14], 23.7 µM (inactive); in [15] it was 19.9 µM (inactive); in experiment [16] it was 14.2 µM (inactive); in experiment [17] it was 22.8 µM (inactive); in experiment [18], 29.2 µM (inactive). The GI50 in experiment [19] was 27.9 µM (inactive); in experiment [20], 32.4 µM (inactive).

With `Cc1nc(O)nc2nc3ccc(Cl)cc3c(N(CCO)CCO)c12`, the GI50 in experiment [1] is > 100 µM (inactive); in [2] it was > 100 µM (inactive); in [3] it was 0.762 µM (active); in [4], > 100 µM (inactive); in experiment [5], 39 µM (inactive); in experiment [6] it was > 100 µM (inactive). Further, the GI50 in [7] was 48.2 µM (inactive); in experiment [8], > 100 µM (inactive); in experiment [9], > 100 µM (inactive); in experiment [10], > 100 µM (inactive); in [11] it was 18.4 µM (inactive); in [12], 73.6 µM (inactive). Besides, the GI50 was > 100 µM (inactive) in experiment [13]; 24 µM (inactive) in experiment [14]; > 100 µM (inactive) in experiment [15]; 73.6 µM (inactive) in [16]; > 100 µM (inactive) in [17]; > 100 µM (inactive) in [18]. For the same compound, the GI50 was > 100 µM (inactive) in experiment [19] and 10.7 µM (inactive) in [20].

`O=C(CC(=O)CC(O)(C(F)(F)F)C(F)(F)F)CC(O)(C(F)(F)F)C(F)(F)F`: the GI50 in experiment [1], in experiment [2], in [3], in experiment [4], in experiment [5] and in experiment [6] was > 10 µM (inactive) each time. In addition, the GI50 in experiment [7], in [8], in experiment [9], in experiment [10], in experiment [11] and in experiment [12] was > 10 µM (inactive) throughout. Besides, the GI50 in experiment [13] was > 10 µM (inactive); in [14], > 10 µM (inactive); in experiment [15], > 10 µM (inactive); in experiment [16] it was > 10 µM (inactive); in experiment [17] it was > 10 µM (inactive); in experiment [18], 8.49 µM (inactive). Further, the GI50 in experiment [19] and in experiment [20] was > 10 µM (inactive) each time.

The values above are taken from ChEMBL document CHEMBL1201862, “PubChem BioAssay data set” (2004).
